Results: ChEMBL document CHEMBL1143179 (Bioorg Med Chem Lett, 2008)
pEC50, pKi: −log10 of the molar value. Calls of active or inactive are those of the source. The rule behind the calls is not given here.

Key:
[1] = molecular target: T1, Prostaglandin E2 receptor EP2 subtype (Homo sapiens, UniProt P43116); assay: Displacement of [3H]PGE2 from human EP2 receptor
[2] = molecular target: T1, Prostaglandin E2 receptor EP2 subtype; assay: Agonist activity at human EP2 receptor by cAMP assay; type: functional
[3] = molecular target: T2, Prostaglandin E2 receptor EP4 subtype (Homo sapiens, UniProt P35408); assay: Agonist activity at human EP4 receptor by cAMP assay; type: functional
T2 sequence (P35408 whole entry): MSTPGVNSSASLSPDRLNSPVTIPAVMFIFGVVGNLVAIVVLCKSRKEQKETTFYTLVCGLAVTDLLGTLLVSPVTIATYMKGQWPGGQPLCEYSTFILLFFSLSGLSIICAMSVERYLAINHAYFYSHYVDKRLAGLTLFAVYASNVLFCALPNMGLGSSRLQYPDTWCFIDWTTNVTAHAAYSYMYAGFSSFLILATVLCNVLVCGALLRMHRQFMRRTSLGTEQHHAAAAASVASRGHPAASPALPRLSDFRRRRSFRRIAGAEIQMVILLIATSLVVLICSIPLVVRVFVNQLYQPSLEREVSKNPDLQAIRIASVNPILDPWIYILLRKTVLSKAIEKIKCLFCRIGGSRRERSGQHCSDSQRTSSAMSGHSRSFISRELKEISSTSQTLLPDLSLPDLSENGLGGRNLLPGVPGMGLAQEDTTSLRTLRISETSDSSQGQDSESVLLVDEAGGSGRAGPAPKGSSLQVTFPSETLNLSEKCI

[4] = molecular target: T2, Prostaglandin E2 receptor EP4 subtype; assay: Displacement of […] from human EP4 receptor
Mus musculus [5] = assay: Induction of ovulation in sc dosed CD1 mouse; type: functional
[6] = Tmax in rat at 10 mg/kg, sc; type: ADME, organism-based; parameters: dose 10 mg/kg, route subcutaneous; conditions: in vivo
Rattus norvegicus [7] = assay: Bioavailability in rat at 10 mg/kg, sc; type: ADME, organism-based; conditions: in vivo
[8] = Half life in rat at 10 mg/kg, sc; type: ADME, organism-based; parameters: dose 10 mg/kg, route subcutaneous; conditions: in vivo
[9] = Tmax in rat at 10 mg/kg, po; type: ADME, organism-based; parameters: dose 10 mg/kg, route oral; conditions: in vivo
[10] = Drug distribution in rat at 10 mg/kg, iv; type: ADME, organism-based; parameters: dose 10 mg/kg, route intravenous; conditions: in vivo, read-out: Drug uptake
Cavia porcellus [11] = species: Cavia porcellus; assay: Inhibition of methacholine-induced bronchoconstriction in Duncan-Hartley guinea pig; type: functional
Rattus norvegicus [12] = assay: AUC (0 to 48 hrs) in rat at 10 mg/kg, iv; type: ADME, organism-based, Plasma; parameters: time < 48 hr, dose 10 mg/kg, route intravenous; conditions: in vivo
[13] = Half life in rat at 10 mg/kg, po; type: ADME, organism-based; parameters: dose 10 mg/kg, route oral; conditions: in vivo
Cavia porcellus [14] = assay: Inhibition of methacholine-induced bronchoconstriction in Duncan-Hartley guinea pig at >3 ug/kg; type: functional
Rattus norvegicus [15] = assay: AUC (0 to 48 hrs) in rat at 10 mg/kg, po; type: ADME, organism-based, Plasma; parameters: time < 48 hr, dose 10 mg/kg, route oral; conditions: in vivo
[16] = Tmax in rat at 10 mg/kg, iv; type: ADME, organism-based; parameters: dose 10 mg/kg, route intravenous; conditions: in vivo
[17] = Half life in rat at 10 mg/kg, iv; type: ADME, organism-based; parameters: dose 10 mg/kg, route intravenous; conditions: in vivo
Rattus norvegicus [18] = assay: Oral bioavailability in rat at 10 mg/kg; type: ADME, organism-based; conditions: in vivo
[19] = Clearance in rat at 10 mg/kg; type: ADME, organism-based; parameters: dose 10 mg/kg; conditions: in vivo
Rattus norvegicus [20] = assay: AUC (0 to 48 hrs) in rat at 10 mg/kg, sc; type: ADME, organism-based, Plasma; parameters: time < 48 hr, dose 10 mg/kg, route subcutaneous; conditions: in vivo
Mus musculus [21] = assay: Induction of ovulation in po dosed CD1 mouse; type: functional

T1 sequence (P43116 whole entry): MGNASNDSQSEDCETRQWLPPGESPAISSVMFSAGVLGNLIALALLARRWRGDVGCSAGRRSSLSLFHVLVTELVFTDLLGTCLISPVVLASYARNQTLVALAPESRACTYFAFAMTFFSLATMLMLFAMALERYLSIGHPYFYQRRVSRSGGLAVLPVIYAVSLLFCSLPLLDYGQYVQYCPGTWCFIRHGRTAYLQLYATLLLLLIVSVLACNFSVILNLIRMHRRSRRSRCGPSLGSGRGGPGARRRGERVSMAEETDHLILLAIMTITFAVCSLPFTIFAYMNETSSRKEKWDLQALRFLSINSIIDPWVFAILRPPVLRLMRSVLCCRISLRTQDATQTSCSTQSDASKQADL

## O=C(O)c1ccc(CCN2C(=O)CC[C@@H]2/C=C/[C@@H](O)Cc2ccccc2)cc1
[1]
  pKi: 5.60
[2]
  pEC50: 6.36
[3]
  pEC50: 10.52

## CCC[C@H](O)/C=C/[C@H]1CCC(=O)N1CCc1ccc(C(=O)O)cc1
[4]
  pKi: 7.57
[1]
  pKi: 4.60

## CCCC[C@H](O)/C=C/[C@H]1CCC(=O)N1CCc1ccc(C(=O)O)cc1
[4]
  pKi: 9.00
[1]
  pKi: 6.37
[2]
  pEC50: 7.10
[3]
  pEC50: 10.40

## CC[C@H](O)/C=C/[C@H]1CCC(=O)N1CCc1ccc(C(=O)O)cc1
[4]
  pKi: 6.31
[1]
  pKi: < 5.00

## CCCCCC[C@H](O)/C=C/[C@H]1CCC(=O)N1CCc1ccc(C(=O)O)cc1
[1]
  pKi: 7.27

## O=C(O)c1ccc(CCN2C(=O)CC[C@@H]2/C=C/[C@@H](O)Cc2cccc(Cl)c2)cc1
[4]
  pKi: 10.70
[1]
  pKi: 6.00
[2]
  pEC50: 6.60
[3]
  pEC50: 10.52
Mus musculus [5]
  Activity: inactive

## CCCCC[C@H](O)/C=C/[C@H]1CCC(=O)N1CCc1ccc(C(=O)O)cc1
[6]
  Tmax: 0.25 h
Rattus norvegicus [7]
  F: 82%
[8]
  half-life: 31.6 h
[9]
  Tmax: 4 h
[10]
  Vd: 42.4 L/kg
Cavia porcellus [11]
  ED50: 0.0017 mg/kg
Rattus norvegicus [12]
  AUC: 18095.3 ng·h/mL
[13]
  half-life: 20.8 h
[2]
  pEC50: 7.82
Cavia porcellus [14]
  Inhibition: >50%
Rattus norvegicus [15]
  AUC: 14657.8 ng·h/mL
[16]
  Tmax: 4.98 min
[17]
  half-life: 14.3 h
[3]
  pEC50: 10.70
Rattus norvegicus [18]
  F: 33%
[19]
  clearance: 9.17 mL/min/kg
Rattus norvegicus [20]
  AUC: 35175.6 ng·h/mL

## CCCCC(C)(C)[C@H](O)/C=C/[C@H]1CCC(=O)N1CCc1ccc(C(=O)O)cc1
[4]
  pKi: 8.05
[1]
  pKi: 6.85
[2]
  pEC50: 7.72
[3]
  pEC50: 8.52

## CCCC1([C@H](O)C/C=C/[C@H]2[C@H](O)CC(=O)[C@@H]2CCCCCCC(=O)OC)CCC1
Mus musculus [21]
  Activity: inactive

## CCCCC1([C@@H](O)/C=C/[C@H]2CCC(=O)N2CCc2ccc(C(=O)O)cc2)CCC1
[4]
  pKi: 8.70
[1]
  pKi: 7.68
[2]
  pEC50: 8.52
Mus musculus [21]
  ED50: 1 mg/kg
[3]
  pEC50: 9.52
Mus musculus [5]
  Activity: inactive
